Data as given in patent publication US9394307B2, “Fused heteroaryl pyridyl and phenyl benzenesuflonamides as CCR2 modulators for the treatment of inflammation” (ChemoCentryx, Inc., priority 2007, dated 2016).
Several values for one entry are separate records, joined by “and”; a condition that tells them apart may be missing. Equal values may be shown once. Read-outs that look alike come from different tables or passages of the source.

Columns and labels:
[1] = Intravenous/oral pharmacokinetic study in Sprague-Dawley rats; type: in vivo; details: rat, plasma, male Sprague-Dawley rats; for MRT: read-out: Rat PK MRT (converted); for half-life: read-out: Rat PK T1/2
Procedure: An intravenous/oral pharmacokinetic study with the selected compounds was conducted in male Sprague-Dawley rats weighing between 0.24 and 0.36 kg. Blood samples were collected at predetermined time points and the corresponding plasma samples from the animals were analyzed for test compound concentrations using an LC-MS/MS method. The pharmacokinetic parameters were derived from the plasma concentration versus time curve.
Eight animals weighing between 0.24 and 0.36 kg were used for this study. Two animals were used for the i.v. dosing, whereas the later six were for oral dosing.
For i.v. dosing, a solution formulation of test compound was prepared in propylene glycol/N,N-dimethyl acetamide/EtOH (31.6/31.6/36.8) at 1 mg/mL and each animal received 1 mL/kg. For oral dosing, a the test compounds were suspended in 1% HPMC at 0.5 mg/mL and each animal received 10 mL/kg.
Animals were fasted overnight and examined prior to dosing and at the conclusion of the study. For intravenous dosing, blood (0.2 mL) was drawn at pre-dose and at 2, 5, 10, 15, and 30 minutes, 1, 2, 4, 6, and 8 hours post-dose. For oral dosing, blood (0.2 mL) was drawn at pre-dose and at 5, 15, and 30 minutes, 1, 1.5, 2, 4, 6, 8, and 24 hours post-dose. Blood was sampled from canulated animals and then placed into chilled polypropylene tubes containing sodium EDTA as the anticoagulant and kept on ice until centrifugation. Plasma was collected through centrifugation (Eppendorf Centriguge 5417R) at 12000 rpm and 4° C. for 6 minutes and stored at −20° C. until analysis.
Plasma samples (50 μL) were extracted with 150 μL acetonitrile containing the internal standard on a linear shaker for 10 min. The samples were centrifuged at 4450 RPM for 10 min at 4° C. (Allegra X-15R centrifuge, Beckman Coulter, Inc., Fullerton, Calif.). 80 μL of the resultant supernatant was transferred into new plate wells containing 80 μL 0.1% formic acid in water and thoroughly mixed.
Extracted samples prepared using the above procedure were separated by high-performance liquid chromatography using a Shimadzu (Kyoto, Japan) system equipped with two LC-10 AD pumps and a C-18 column (Waters Sunfire, 2×30 mm, 3.5 μm; 10 μl injection) using a mobile phase consisting of (A) 0.1% formic acid in water and (B) 0.1% formic acid in acetonitrile, at a flow rate of 0.35 mL/min. The gradient was 0-1.5 min 5% B, 1.5-2.5 min 5-95% B, 2.5-2.7 min 95% to 5% B, and 2.7-4.0 min 5% B. The HPLC elute was routed into an Applied Biosystems (Foster City, Calif.) Sciex API 3000 triple quadrupole mass spectrometer, operating in the Turbo Ionspray positive ionization MS/MS mode for analysis. Acquisition and integration were performed with Applied Biosystems-Sciex Analyst software (version 1.4.1). The calibration curve was obtained through a quadratic (i.v.) or linear (p.o.) regression and the calibration range was 4-5000 ng/mL and 2-5000 ng/mL for the i.v. and p.o. studies, respectively.
A total of eleven time points were obtained for each dosing route during the blood collection period. Descriptive pharmacokinetic parameters were determined from the plasma concentration-time curve by a standard non-compartmental analysis (Wagner, 1993) from each animal and dose route. • Half-life (T1/2): Terminal half-life. • Cmax: Maximum plasma concentration • AUC0-∞: Area under the plasma concentration-time curve from time of dosing extrapolated to infinity. • CL: Total body clearance. • MRT0-∞: Mean residence time from the time of dosing extrapolated to infinity • Vdss: Volume of distribution at steady state. • F: Bioavailability.
Pharmacokinetic analysis was performed by using XLFit® v.4.1 (ID Business Solutions Inc., Alameda, Calif.).

CYP3A4 = CYP3A4 (Homo sapiens (Human), UniProt P08684); assay: CYP3A4 inhibition assay in pooled human liver microsomes; type: in vitro ADME; details: NADPH, 37° C., read-out: CYP 3A4 Inhibition IC50
Sequence of CYP3A4 (P08684 whole entry): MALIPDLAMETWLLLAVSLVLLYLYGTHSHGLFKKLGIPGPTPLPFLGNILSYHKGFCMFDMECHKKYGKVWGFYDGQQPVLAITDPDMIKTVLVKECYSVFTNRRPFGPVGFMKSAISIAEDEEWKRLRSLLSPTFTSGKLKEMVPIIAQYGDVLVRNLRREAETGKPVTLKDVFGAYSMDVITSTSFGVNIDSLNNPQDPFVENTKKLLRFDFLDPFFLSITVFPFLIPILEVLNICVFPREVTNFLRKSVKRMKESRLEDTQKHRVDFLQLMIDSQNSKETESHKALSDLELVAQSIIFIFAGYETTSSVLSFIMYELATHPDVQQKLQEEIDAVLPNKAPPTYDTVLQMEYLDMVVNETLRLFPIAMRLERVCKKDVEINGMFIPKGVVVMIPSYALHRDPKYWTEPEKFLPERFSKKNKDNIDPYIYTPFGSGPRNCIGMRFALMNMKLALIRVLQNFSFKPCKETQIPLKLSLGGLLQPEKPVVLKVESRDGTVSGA
Procedure: (§1) The test compounds were incubated with pooled human liver microsomes at 37° C. in the presence of NADPH and appropriate concentrations of substrates specific for CYP2C9 and 3A4. The final assay concentrations of human liver microsomes and substrates, the initial substrate stock solution concentrations in DMSO, and the times used for the various isozyme incubations are summarized in Table 4.
(§2) 120 μL of a mixture of human liver microsomes (HLM) in 50 mM potassium phosphate/5 mM MgCl2 buffer was added into all wells of row A in a 96-well plate. The concentration of microsomal protein was 2-fold the intended protein concentration for the particular isozyme assay recorded in Table 4. In addition, 80 μL of this human liver microsome preparation spiked with 1% DMSO was dispensed into all wells of rows B through H.
1.2 μL of each individual test compound in DMSO (10 mM) was added to the first 10 wells of row A (5 different test compounds each in duplicate). Additionally, 1.2 μL of the DMSO stock of the control inhibitor for the isozyme under study was added into the final two wells of row A to give a concentration two-fold above the highest final concentration. (See Table 5 for the final control inhibitor concentrations)
This process was repeated for rows D through G. After mixing, 40 μL was removed and discarded from the wells of row G.
The plate was covered and pre-incubated for 10 minutes in a 37° C. incubator. […]
(§3) Samples were analyzed by the LC-MS/MS method. Each metabolite (Table 6) derived from the particular substrate for each different CYP450 isoform was monitored. […]
(§4) AUCtest, AUCcontrol and AUCblank are the peak area count for the metabolite of the control in the presence of test article or positive inhibitor, the peak area count of metabolite of the control without test article, and peak area count observed in the microsome blank, respectively. […] The IC50 values were calculated using a 4-parameter fit in XLFit™ (IDBS Lid, Guildford, UK).

CYP2C9 = CYP2C9 (Homo sapiens (Human), UniProt P11712); assay: CYP2C9 inhibition assay in pooled human liver microsomes; type: in vitro ADME; details: NADPH, 37° C., diclofenac substrate, read-out: CYP 2C9 Inhibition IC50
Sequence of CYP2C9 (P11712 whole entry): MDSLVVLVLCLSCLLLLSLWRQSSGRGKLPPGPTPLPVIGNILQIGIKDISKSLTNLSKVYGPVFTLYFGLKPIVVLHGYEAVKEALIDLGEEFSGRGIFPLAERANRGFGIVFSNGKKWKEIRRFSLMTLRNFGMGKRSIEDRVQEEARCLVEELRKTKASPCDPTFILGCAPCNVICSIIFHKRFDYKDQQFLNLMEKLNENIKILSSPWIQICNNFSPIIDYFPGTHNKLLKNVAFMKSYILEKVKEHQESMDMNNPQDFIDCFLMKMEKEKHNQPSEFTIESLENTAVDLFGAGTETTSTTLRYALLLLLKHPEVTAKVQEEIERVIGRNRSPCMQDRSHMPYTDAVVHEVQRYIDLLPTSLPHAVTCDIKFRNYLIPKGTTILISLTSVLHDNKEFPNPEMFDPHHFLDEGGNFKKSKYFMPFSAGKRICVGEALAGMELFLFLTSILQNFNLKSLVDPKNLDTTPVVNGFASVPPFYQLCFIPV
Procedure: as §1
as §2, with “H. […]” for “H.”
as §3, §4

in vivo = details: male, beagle, dog, plasma
Procedure: (§5) PK parameters were determined by non-compartmental analysis.

[2] = Pharmacokinetics and oral bioavailability in the beagle dog; details: male beagle dog, oral 5 mg/kg vs i.v. 1 mg/kg
Procedure: as §5

CCR2 = CCR2 (Homo sapiens (Human), UniProt P41597); assay: CCR2 chemotaxis assay (conventional migration assay, THP-1 cells, MCP-1); type: cell-based
Sequence of CCR2 (P41597 other isoform, or with tags, fused parts or gaps isoform P41597-2): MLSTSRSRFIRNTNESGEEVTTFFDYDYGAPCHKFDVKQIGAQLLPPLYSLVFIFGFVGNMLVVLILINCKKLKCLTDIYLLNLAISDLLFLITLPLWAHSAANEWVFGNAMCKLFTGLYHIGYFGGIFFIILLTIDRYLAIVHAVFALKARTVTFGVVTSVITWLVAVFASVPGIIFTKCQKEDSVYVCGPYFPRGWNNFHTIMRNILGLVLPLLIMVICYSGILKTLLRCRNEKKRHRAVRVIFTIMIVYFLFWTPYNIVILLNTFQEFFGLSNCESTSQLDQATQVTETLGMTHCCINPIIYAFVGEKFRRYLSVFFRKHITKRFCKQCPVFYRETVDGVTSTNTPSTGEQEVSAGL
Procedure: In vitro cell migration assays can be performed (but are not limited to this format) using the 96-well microchamber (called ChemoTX™). […] In this assay, CCR2-expressing cells (such as THP-1) are first incubated with a compound of interest, such as a possible CCR2 antagonist, respectively, at increasing concentrations. Typically, fifty thousand cells per well are used, but the amount can range from 10^3-10^6 cells per well.
THP-1 cells were obtained from the American Type Culture Collection (Manassas, Va.) and cultured in RPMI tissue culture medium supplemented with 10% fetal calf serum (FCS) in a humidified 5% CO2 incubator at 37° C. […] ChemoTX® chemotaxis microchambers were purchased from Neuro Probe (Gaithersburg, Md.). CyQUANT® cell proliferation kits were purchased from Molecular Probes (Eugene, Oreg.).
Conventional migration assay was used to determine the efficacy of potential receptor antagonists in blocking migration mediated through chemokines (such as CCR2). This assay was routinely performed using the ChemoTX® microchamber system with a 5-μm pore-sized polycarbonate membrane. To begin such an assay, chemokine expressing cells (such as THP-1 cells for CCR2 assay) were harvested by centrifugation of cell suspension at 1000 RPM on a GS-6R Beckman centrifuge. The cell pellet was resuspended in chemotaxis buffer (HBSS with 0.1% BSA) at 10×10^6 cells/mL for CCR2 assay. Test compounds at desired concentrations were prepared from 10 mM stock solutions by serial dilutions in chemotaxis buffer. An equal volume of cells and compounds were mixed and incubated at room temperature for 15 minutes. […] To quantify cells migrated across the membrane, 5 μL of 7× CyQUANT® solution was added to each well in the lower chamber, and the fluorescence signal measured on a Spectrafluor Plus fluorescence plate reader (TECAN, Durham, N.C.). The degree of inhibition was determined by comparing migration signals between compound-treated and untreated cells. […]

[3] = THP-1 cells, 0.1 nM MCP-1, read-out: IC50 in the CCR2 chemotaxis assay

Q: What does the source list for Cc1cnc(C(=O)c2ccnc3[nH]ncc23)c(NS(=O)(=O)c2ccc(Cl)c(C(F)(F)F)c2)c1?
A: MRT [1]: 0.583 h; IC50 (CYP3A4): 3000 nM

Q: Which MRT [1] does the source give for COC1=C(C(=O)c2ncc(C)cc2NS(=O)(=O)c2ccc(Cl)c(C(F)(F)F)c2)C2C=CNC2N=C1 (stereo not shown) here?
A: 0.367 h

Q: And the half-life [1]?
A: 0.317 h

Q: And the IC50 (CYP3A4)?
A: 3000 nM

Q: For O=C(C1=CC=NC2NC=CC12)c1ncc(Cl)cc1NS(=O)(=O)c1ccc(Cl)c(C(F)(F)F)c1 (stereo not shown), which MRT [1] is on record?
A: 0.35 h

Q: What about the half-life [1] of the same compound?
A: 0.7 h

Q: What about the IC50 (CYP2C9) of the same compound?
A: 3000 nM

Q: Which results are given for O=C(c1ncc(Cl)cc1NS(=O)(=O)c1ccc(Cl)c(C(F)(F)F)c1)c1ncnc2[nH]ccc12?
A: MRT [1]: 1.13 h; half-life [1]: 2.12 h; IC50 (CYP2C9): 15000 nM

Q: For Cc1cnc(C(=O)c2ncnc3[nH]ccc23)c(NS(=O)(=O)c2ccc(Cl)c(C(F)(F)F)c2)c1 [Compound 5, 4-Chloro-N-[5-methyl-2-(7H-pyrrolo[2,3-d]pyrimidine-4-carbonyl)-pyridin-3-yl]-3-trifluoromethyl-benzenesulfonamide], which MRT (in vivo; iv, 1 mg/kg) is on record?
A: 7.2 h

Q: What about the Vd (in vivo; iv, 1 mg/kg) of the same compound?
A: 0.1 L/kg

Q: What about the clearance (in vivo; iv, 1 mg/kg) of the same compound?
A: 0.2 mL/min/kg

Q: And the half-life (in vivo; iv, 1 mg/kg)?
A: 4.7 h

Q: And the bioavailability (in vivo; oral, 5 mg/kg)?
A: ~100%

Q: And the Cmax (in vivo; po, 5 mg/kg)?
A: 44400 ng/mL and ~59.5 µM

Q: What about the Tmax (in vivo; po, 5 mg/kg) of the same compound?
A: 1.5 h

Q: And the oral bioavailability [2]?
A: about 100%

Q: What about the IC50 (CCR2) of the same compound?
A: ~5 nM

Q: With O=C(c1ncc(Cl)cc1NS(=O)(=O)c1ccc(Cl)c(C(F)(F)F)c1)c1cncc2[nH]ccc12 [Compound 11, 4-Chloro-N-[5-chloro-2-(1H-pyrrolo[2,3-c]pyridine-4-carbonyl)-pyridin-3-yl]-3-trifluoromethyl-benzenesulfonamide] as the compound, how does the IC50 (CCR2; [3]) read?
A: < 1000 nM

Q: Which IC50 (CCR2; [3]) does the source give for Cc1cnc(C(=O)c2cncc3[nH]ccc23)c(NS(=O)(=O)c2ccc(Cl)c(Cl)c2)c1 [Compound 12, 3,4-Dichloro-N-[5-methyl-2-(1H-pyrrolo[2,3-c]pyridine-4-carbonyl)-pyridin-3-yl]-benzenesulfonamide] here?
A: < 1000 nM

Q: With Cc1cnc(C(=O)c2ncnc3[nH]ccc23)c(NS(=O)(=O)c2ccc(Cl)c(C(F)(F)F)c2)c1 [drawing 76] as the compound, how does the MRT [1] read?
A: 2.25 h

Q: What about the IC50 (CYP3A4) of the same compound?
A: 20000 nM

Q: With Cc1cnc(C(=O)c2ncnc3[nH]ccc23)c(NS(=O)(=O)c2ccc(Cl)c(C(F)(F)F)c2)c1 [drawing 78] as the compound, how does the half-life [1] read?
A: 2.68 h
